Experimental data reported in ChEMBL document CHEMBL1155779, “Characterization of the PON1 active site using modeling simulation, in relation to PON1 lactonase activity” (Bioorg Med Chem, 2008).

The compounds below were run against Serum paraoxonase/arylesterase 1 (Homo sapiens) (UniProt P27169) (assay: Activity at human recombinant PON1 assessed as hydrolysis of lactone ring at 1 mM by Ellman's method).
Chain of Serum paraoxonase/arylesterase 1 (Homo sapiens) (P27169 whole entry): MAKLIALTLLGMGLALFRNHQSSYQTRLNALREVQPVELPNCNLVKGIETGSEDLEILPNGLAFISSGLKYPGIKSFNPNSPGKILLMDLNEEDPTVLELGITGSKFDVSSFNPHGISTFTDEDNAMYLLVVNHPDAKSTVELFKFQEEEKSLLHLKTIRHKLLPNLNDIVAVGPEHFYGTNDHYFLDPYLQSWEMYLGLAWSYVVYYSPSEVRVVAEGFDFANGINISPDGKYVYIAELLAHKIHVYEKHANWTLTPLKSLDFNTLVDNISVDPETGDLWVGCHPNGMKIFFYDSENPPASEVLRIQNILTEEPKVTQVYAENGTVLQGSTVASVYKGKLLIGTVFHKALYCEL

Row | Activity [µmol/min/mg] | SMILES
1 | 18.3 | CC1=CCC(=O)O1
2 | 13.6 | O=C1Cc2ccccc2O1
3 | 1.67 | O=C1C[C@@H]2C=CC[C@@H]2O1
4 | 0.83 | O=C1C[C@H]2C=CC[C@H]2O1

The remaining lines, values behind:

Row | SMILES | Activity [µmol/min/mg]
5 | C[C@H]1CC(=O)O1 | 3.83
6 | O=C1Cc2cc(O)ccc2O1 | 33
7 | O=C(O)Cc1ccccc1 | 112
